# Results published in article PMC5556019, “Targeting Apolipoprotein E/Amyloid β Binding by Peptoid CPO_Aβ17-21 P Ameliorates Alzheimer’s Disease Related Pathology and Cognitive Decline” (Scientific Reports, 2017).
# Numbered stars: 1 amine (or outer) side, 2 acyl side, 3 side chain; on linkers, the order of the positions; unused ones are H or OH. Bridge positions count the residues as written; N and C are the ends. Square brackets hold non-standard residues; d marks the D form. Peptide text beside a SMILES is read from it. ξ: configuration not given here. N(CH2CH2CO)Gly = O=C(CN(CCC(=O)[*:3])[*:1])[*:2]; Nphe = O=C(O)CNCc1ccccc1; Nleu = CC(C)CNCC(=O)O; ξP = O=C(O)C1CCCN1; Sar = CNCC(=O)O
# Columns and labels:
# [1] = system: SK-N-SH human neuroblastoma cells; experiment: Toxicity rescue: apoE4-enhanced cytotoxicity of oligomeric Aβ42; format: cell-based; details: Aβ42 10 µM, apoE4 1 µM pre-incubated 6 hrs with inhibitor (Aβ12-28 P 4 µM; CPO_Aβ17-21 P 1 or 4 µM), three days
# Protocol: Oligomeric Aβ42 was prepared as previously published. To prepare 100 µM oligomeric Aβ42 stock solution, 0.45 mg HFIP pretreated Aβ42 peptide was dissolved into 20 µl fresh dry dimethyl sulfoxide (DMSO) to form 5 mM Aβ42 DMSO solution; then 980 µl ice cold phenol-free Ham’s F-12 cell culture medium (with 146 mg/L L-Glutamine) was added to the Aβ42 DMSO solution followed by incubation at 4 °C for 24 hrs. CPO_ Aβ17–21 P or Aβ12-28 P was pre-incubated with apoE4 in DMEM medium containing 1% N-2 supplement for 6 hrs at 37 °C then mixed with freshly prepared oligomeric Aβ42 and added to SK-N-SH cells. For comparison, cells were incubated with Aβ42 alone and Aβ42 + apoE4, apoE alone, Aβ42 + CPO_Aβ17-21 P and Aβ42 + Aβ12-28 P as additional controls. The final concentration of peptides or peptoids was as follows: Aβ42 10 µM, apoE4 1 µM, Aβ12-28 P 4 µM and CPO_Aβ17-21 P 1 µM or 4 µM. Cells were under different treatments for three days and the cell viability was assessed as described above.
# [2] = system: APP/PS1 Tg mice; experiment: Total amyloid burden by 6E10/4G8 immunohistochemistry; format: in vivo, mouse; details: one-tailed unpaired t-test
# Protocol: The effect of CPO_Aβ17-21 P on Aβ deposition was tested in APP/PS1 Tg mice with plaque pathology. This AD mouse model develops plaque pathology from the age of 3 months. Animals were divided into two groups and received intraperitoneally (i.p.) injections of 0.2 mg of CPO_ Aβ17–21 P per mouse in sterile saline (n = 11, 5 male, 6 female) or saline alone (n = 10, 5 male, 5 female) as a control twice weekly for 4 months, beginning at age 3 months. During the treatment, veterinary staff monitored animals for any signs of toxicity, such as changes in body weight, physical appearance, and altered behavior. Animals were sacrificed a week after administration of the last treatment dose and behavioral testing. […]
# Mice were anesthetized with sodium pentobarbital (150 mg/kg, i.p.) and blood was collected via cardiac puncture and plasma was separated by centrifugation. […] To examine brain inflammation levels associated with treatment, we assessed the degree of astrocytosis with GFAP immunoreactivity and the degree of microgliosis with Iba1 and CD11b immunoreactivity as previously published, [37], [39], [40]. […]
# Amyloid burden was measured by a Bioquant stereology (BIOQUANT Image Analysis Corporation, Nashville, TN) semi-automated image analysis system using a randomized and unbiased sampling scheme according to our previous published protocol, [19], [37], [39], [40]. […]
# [3] = Thioflavin T aggregation assay, peptoid incubated alone; format: physicochemical; details: up to 100 µM, 37 °C, 10 days, 100 mM Tris buffer pH 7.4
# Protocol: Peptide Aβ42 or peptoid CPO_Aβ17-21 P were incubated alone at a concentration of 100 µM over a period of 7–10 days at 37 °C in 100 mM Tris buffer (pH 7.4). […] In aggregation inhibition experiments, apoE4 was pre-incubated with CPO_Aβ17-21 P in a molar ratio of 1:2 for 6 hrs at 37 °C followed by addition to freshly reconstituted Aβ42 on ice (molar ratio 100:1:2, Aβ42:apoE4:peptoid). As a control, Aβ42 was also incubated with CPO_Aβ17-21 P at a molar ratio of 100:2. For peptide Aβ40 all the experiments were conducted under the same conditions as Aβ42 except the peptide concentration was 400 µM. The molar ratio of Aβ40:apoE4:CPO_Aβ17-21 P was 100:1:2. (400 µM Aβ40:4 µM apoE4:8 µM CPO_Aβ17-21 P). Fibril formation by the different peptides at various time points was evaluated by a standard Thioflavin-T assay according to previously published protocols, [33].The samples were diluted in buffer containing 50 mM glycine, 2 µM Thioflavin T pH 9.2, and read on a Molecular Devices SpectraMax M2 spectrophotometer (Sunnyvale, CA) at excitation and emission wavelengths 440 and 482 nm.
compound,measurement,setting,value
CC(C)CN1CC(=O)N2CCCC2C(=O)N(Cc2ccccc2)CC(=O)N(Cc2ccccc2)CC(=O)N(C)CC(=O)N(CC(N)=O)CCC1=O (stereo not shown) [CPO_Aβ17-21 P] ([Nleu][ξP][Nphe][Nphe][Sar][N(CH2CH2CO)Gly]-NH2; lactam N-6),neutralization of apoE4-enhanced cytotoxicity of Aβ42,[1],neutralized
same,"total amyloid burden (6E10/4G8 immunoreactivity), cortex",[2]; p = 0.0226 versus vehicle,significant reduction
same,"total amyloid burden (6E10/4G8 immunoreactivity), hippocampus",[2]; p = 0.0361 versus vehicle,significant reduction
same,formation of aggregates or fibrils by the peptoid alone,[3],did not produce aggregates or fibrils
